Consider 81 compounds from the METLIN SMRT retention time set (Domingo-Almenara et al. 2019).

This data set in a line: gradient 5% acetonitrile 3 min, to 50% in 2 min, to 85% in 15 min, held 3 min, 100 µL/min. The following applies: column: Zorbax Extend-C18 2.1 x 50 mm; eluents: water / acetonitrile, 0.1% formic acid. In outline:
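Values are retention times taken from adduct peaks that software picked and an analyst inspected. The pure standards were run as mixtures of ~100 molecules on HPLC linked to a quadrupole time-of-flight mass spectrometer, in positive and negative ionization mode. A Zorbax Extend-C18 column (2.1 × 50 mm, 1.8 μm) was used at 100 μL/min with water and acetonitrile, each including 0.1% formic acid.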
Consider `CCN(CC)CCNC(=O)c1ccc(-c2nc(CCN(C)C(C)=O)no2)cc1`, for which the RP-LC retention time stood at 576 s. Next, `CCCNc1cc(N2CCC(CCC(=O)NCc3ccc(F)cc3)CC2)ncn1`: 686 s. As to `Cc1nc2cc(-c3noc(Cc4cccs4)n3)ccc2n(C2CCCC2)c1=O`, the RP-LC retention time was 1200 s. With `CCOC(=O)c1cccc(NS(=O)(=O)c2c(C)nn(-c3ccc(-c4ccccc4)nn3)c2C)c1` the figure was 1070 s.

`Cc1sc2ncnc(SCC(=O)c3ccc4c(c3)OCCO4)c2c1C` returned an RP-LC retention time of 1040 s. The compound `Cc1ccccc1-n1ccn(Cc2nc(-c3ccc(Cl)cc3)no2)c(=O)c1=O` returned an RP-LC retention time of 912 s. Next, `CCn1ncc(NC(=O)COc2ccccc2C)c(N2CCCCC2)c1=O`: 1150 s. With `CCCONC(=O)Nc1ccccc1[N+](=O)[O-]` the figure was 787 s; with `CCc1ccc(CNC(=O)c2cn(-c3cc(-c4nc(C)no4)ccn3)cn2)cc1`, 805 s; with `Cc1ccc2ncn(C3CCN(C(=O)Nc4ccc(F)cc4F)CC3)c(=O)c2c1`, 770 s. With `O=C(O)c1cn(Cc2ccccc2)c(=O)c2ccccc12`, the RP-LC retention time came to 788 s.

Take `COc1ccc(C(=O)N2CCc3cc(-c4csc(C)n4)ccc32)cc1`: the RP-LC retention time was found to be 972 s. Next, `Cc1cc(S(=O)(=O)N2CCC(n3cnnc3C(C)C)CC2)ccc1F`: 751 s; `COc1ccccc1-c1nnc(-c2cccc(S(=O)(=O)N(C)C)c2)o1`: 840 s. The compound `Fc1ccc(OCCc2noc(C3CCCN3)n2)cc1` (stereo unspecified) had an RP-LC retention time of 631 s. Compound `O=C(CCCn1nc(-c2ccc(F)cc2)ccc1=O)Nc1nc2ccccc2[nH]1` displayed an RP-LC retention time of 584 s.

Take `O=C(NC1CC1)c1cccn1Cc1noc(-c2ccccc2)n1`: the RP-LC retention time came out at 840 s. Compound `CCn1nccc1-c1cccc(-c2noc(CNC(=O)c3ccccc3)n2)c1` showed an RP-LC retention time of 874 s. Next, `CCCC1(CO)CCCN1C(=O)c1nn(C)c2ccccc12` (stereo unspecified): 857 s. The compound `CCn1c(C(=O)NCc2ccc(F)cc2)cc2sc(Cl)cc21` yielded an RP-LC retention time of 1140 s.

For the compound `COC(=O)C1=CN(c2cc(C)ccc2OC)c2ccccc2S1(=O)=O`, the RP-LC retention time is 894 s. Next, `Cc1nc(C)c(C(=O)Nc2nc(-c3cccc(Cl)c3)c(C)s2)s1`: 1070 s. `CC(C)NC(=O)N1CCCC(c2cccc(C(=O)NCCN3CCCC3)c2)C1` (stereo unspecified) came in with an RP-LC retention time of 862 s. With `O=C(Cc1cccc(F)c1)NCC(=O)Nc1nc2ccccc2[nH]1` the figure was 623 s; with `CCOc1nc2ccccc2nc1N1CCCC(C(=O)NCC2CCCO2)C1` (stereo unspecified), 934 s. Take `CC(C)NC(=O)C1CC(=O)N(c2n[nH]c3cccc(F)c23)C1` (stereo unspecified): the RP-LC retention time was found to be 621 s. As to `CC(C)n1c(=O)oc2cc(-c3noc(-c4cccc(F)c4)n3)ccc21`, the RP-LC retention time was 1200 s. With `COc1ccc(CC(=O)Nc2ccc(Nc3cc(OC)nc(C)n3)cc2)cc1` the figure was 617 s. As to `COc1ccc(CC(=O)NCc2c(C)nc3sc(C)nn23)cc1Cl`, the RP-LC retention time worked out at 629 s.

Compound `Cc1nc(CC(=O)Nc2nc(-c3ccc(-c4ccccc4)cc3)cs2)cs1` yielded an RP-LC retention time of 1160 s. `COc1ccc(-c2cc3c(=O)n(CC(=O)N4CCN(c5ccccn5)CC4)ncn3n2)cc1` displayed an RP-LC retention time of 641 s. Next, `O=C1CCc2cc(NC(=O)c3cccc(C(F)(F)F)c3)ccc2N1`: 717 s; `CSc1ccc(CNC(=O)Cn2nc(-n3cccc3)c3c(C)cc(C)nc32)cc1`: 1020 s; `Cc1cccc(-c2nc(Nc3ccc(C(=O)O)cc3)c3ccccc3n2)c1`: 689 s. For `COc1ccc(-c2cn3ccn(-c4cccc(F)c4)c(=O)c3n2)cc1OC`, the RP-LC retention time was determined as 746 s.

`CC(=O)c1cccc(NC(=O)c2cccc(Br)c2)c1`: the RP-LC retention time is 840 s.

Compound `O=C(CCCn1c(=O)c2cccn2c2ccccc21)NCCCN1CCC(N2CCCCC2)CC1` showed an RP-LC retention time of 584 s. Next, `O=C(Nc1nnc(-c2cc(Cl)sc2Cl)o1)c1ccc([N+](=O)[O-])o1`: 866 s.

For the compound `Cc1ccc(Nc2c(-c3ccccc3)nc3ccc(Cl)cn23)cc1`, the RP-LC retention time was 787 s.

For the compound `CCOc1cc2c(cc1OCC)C1C(C(=O)Nc3cccnc3)c3ccccc3C(=O)N1CC2` (stereo unspecified), the RP-LC retention time was 611 s. `Clc1ccc2nc(-c3ccc(N4CCOCC4)cc3)c(Nc3ccc4c(c3)OCCO4)n2c1` displayed an RP-LC retention time of 694 s. In turn, `CN(C1CCc2nn(CC3CC3)c(=O)n2CC1)S(=O)(=O)c1ccc(C#N)cc1` (stereo unspecified) registered an RP-LC retention time of 743 s. For the compound `CNC(=O)c1cc(=O)[nH]c2c(C)cccc12`, the RP-LC retention time came out at 588 s. Take `Cc1cc2c(c(=O)n(-c3ccc(F)cc3)c(=O)n2CC(=O)Nc2cccc(Cl)c2)n1C`: the RP-LC retention time was determined as 887 s.

Compound `Cc1ccc(C)c(CN2C(=O)NC3(CCN(C(=O)c4ccsc4)CC3)C2=O)c1` displayed an RP-LC retention time of 827 s. As to `COCC(=O)N(CC(=O)N1CCc2sccc2C1COc1ccccc1F)CC(C)C` (stereo unspecified), the RP-LC retention time is 900 s. `Cc1nc2ccn(Cc3cccnc3)c(=O)c2cc1C(=O)NCCc1ccco1` had an RP-LC retention time of 598 s. Next, `O=C(Nc1cnc(-c2cccc(Cl)c2)nc1)c1cccs1`: 1070 s; `c1ccc(OCc2nc(-c3ccc(-c4csc(C5CC5)n4)cc3)no2)cc1`: 1330 s. With `COc1cccc(-c2noc(Cc3nnc(-c4ccccc4)o3)n2)c1OC` the figure was 894 s. Next, `Cc1nnc(NC(=O)CSCc2ccco2)s1`: 632 s; `Cc1noc(CN2N=C(C(=O)N3CCC(C)CC3)S(=O)(=O)c3ccccc32)n1`: 826 s. As for `O=C(NCc1cccc(Cl)c1)C1CCc2nc(N3CCOCC3)ncc2C1` (stereo unspecified), the RP-LC retention time came to 726 s. Take `CCn1cc(S(=O)(=O)Nc2ccc(F)cc2F)c2cccnc21`: the RP-LC retention time is 814 s. Turning to `c1cncc(-c2noc(COC3CCCN(C4CCCC4)C3)n2)c1` (stereo unspecified), the RP-LC retention time worked out at 585 s. Next, `CCOC(=O)N1CCC2(CC1)OC(=O)C(C)=C2C(=O)Nc1ccc(F)cc1F`: 840 s; `Cc1nn(C)c(C)c1CCNC(=O)Nc1ccc(Br)cc1`: 674 s; `CCCCC(=O)Nc1ccc2nc(N3CCN(CC)CC3)cc(C(=O)O)c2c1`: 571 s. With `CCOC(=O)C1CCN(C(=O)Cc2nnc(-c3sccc3C)o2)CC1` the figure was 774 s; with `CC1CCN(c2ccc(CNc3nc4ccncc4n(C)c3=O)cc2)CC1`, 559 s; with `CS(=O)(=O)N1CCC(C(=O)Nc2ccc(Br)cc2)Oc2ccccc21` (stereo unspecified), 980 s. Turning to `CCC(=O)N1CCc2c(C(=O)NCc3ccc(N4CCC(C)CC4)cc3)cccc21`, the RP-LC retention time came to 640 s. With `Cc1nc(-c2cc(S(=O)(=O)N(C)C3CCCCC3)cn2C)sc1C(=O)N1CCCC1` the figure was 959 s; with `COc1ccc(NS(=O)(=O)c2ccc(-c3c(C)noc3C)cc2)cc1Cl`, 945 s. Next, `O=C(Cn1c2ccccc2c2ncn(Cc3nc(-c4ccccc4)no3)c(=O)c21)NC1CCCCC1`: 976 s. As for `Cc1nnc2c(=O)n(CC(=O)NCc3ccc(C(F)(F)F)cc3)c3cccnc3n12`, the RP-LC retention time was found to be 728 s. With `CCn1c(CCNC(=O)c2cc(Cl)ccc2F)nc2cccnc21` the figure was 661 s; with `CSc1ccccc1-c1nnc(NC(=O)C(c2ccccc2)c2ccccc2)o1`, 895 s; with `COc1ccc(CCNC(=O)CSc2nc3sc(C)cc3c(=O)n2C)cc1OC`, 689 s.

On to `COc1ccccc1-c1nnc(C2CCN(S(=O)(=O)c3c(C)cc(C)cc3C)CC2)o1`, for which the RP-LC retention time is 1030 s.

Take `Cc1cc(C(=O)Nc2ccc(F)c(F)c2)nc2cc(-c3ccco3)nn12`: the RP-LC retention time was found to be 810 s. With `COC(=O)c1ccc(NS(=O)(=O)c2ccc3c(c2)C(=O)N(C)c2ncccc2O3)cc1` the figure was 881 s; with `CCN1CCN(CC2CCN(S(=O)(=O)c3ccc4c(c3)CCC4)CC2)CC1`, 624 s. With `COc1ccc(Cn2nc3c(S(=O)(=O)N4CCCCC4)cccn3c2=O)cc1F` the figure was 888 s; with `CC[C@H](NC(=O)c1c(C)c(-c2ccccc2)nc2ccccc12)c1ccccc1`, 1060 s. Next, `O=C(Nc1cccnc1)c1cccc([N+](=O)[O-])c1`: 661 s; `Cc1ccn2cc(C(=O)NC(C)c3ccc(F)cc3)nc2c1` (stereo unspecified): 670 s; `CCC1Oc2ccc(S(=O)(=O)N3CCC(C(=O)NC4CC4)CC3)cc2NC1=O` (stereo unspecified): 688 s. Consider `CNC(=O)c1c(NC(=O)c2ccccc2Cl)sc2c1CCC2`, for which the RP-LC retention time came out at 1010 s. `Cc1nc2cc(-c3noc(-c4ccccc4Br)n3)ccc2o1`: the RP-LC retention time came out at 1140 s. Next, `CCc1cc(=O)n(CC(=O)N(C)c2ccccc2)c(N2CCOCC2)n1`: 674 s.
